Measured values as given in patent publication US20260373103A1, “COMPOSITIONS AND METHODS FOR PREVENTING CARDIOMYOPATHY” (OHIO STATE INNOVATION FOUNDATION, priority 2022, published 2026).

Columns and labels:
[1] = test system: HeLa-Parkin and HeLa-Parkin cells expressing USP30; experiment: Oxygen consumption, Seahorse assay; format: cell-based
Method: Measurement of intact cellular respiration was performed using the Seahorse XFe96 Analyzer as previously described. In brief, 2×10^4 cells per well were seeded in the Seahorse XF Cell Culture Microplate (Agilent) using high-glucose DMEM at 37 °C, with a humidified atmosphere of 5% CO2, overnight. And a sensor cartridge was hydrated in Seahorse XF Calibrant in a non-CO2 incubator overnight at 37 °C. The high-glucose DMEM in Cell Culture Microplate was changed to warmed assay medium and placed into a 37 °C non-CO2 incubator for 45 minutes prior to the assay. Oligomycin (1.5 μM/well), FCCP (1 μM/well) and Antimycin A (0.5 μM/well) were supplemented at 18 minutes, 36 minutes and 54 minutes, respectively. The results were analyzed using the Seahorse Wave software.

TOM20 = TOM20 ubiquitination and TOM20 protein level after A/O, western blot; format: cell-based
Method: (§1) HeLa cells and mouse embryonic fibroblasts (MEFs) were grown in Dulbecco's minimum essential medium (DMEM) with 10% fetal bovine serum (FBS) supplemented with penicillin-streptomycin. HeLa Parkin, PINK1 KO cells, WT and MFN2 KO cells were previously described. Cells stably expressing USP30 were generated using lentiviral vectors of pLVX-Puro-Myc-USP30. The USP30 plasmid was obtained from Addgene. The plasmid was transferred into a lentiviral vector and viral particles were prepared by transiently transfecting HEK293T using standard methods. For the drug treatment experiments, cells were incubated in medium containing a mixture of 5 μM oligomycin and 5 μM antimycin A (A/O; see figures for treatment times). In 18 h treatment, A/O were used in combination with 10 μM quinolyl-valyl-O-methylaspartyl-[−2,6-difluorophenoxy]-methyl ketone (QVD), a broad-spectrum caspase inhibitor. ST51000539 (ST-539) was purchased from Tim Tec, Inc. Other chemicals were from Sigma-Aldrich (St. Louis, MO, USA). For FACS analysis, cells stably expressing mt-Keima were incubated in medium containing a mixture of 1 AM oligomycin and 1 AM antimycin A for 1.5 h. Prior to A/O treatment, cultures were treated with DMSO or ST-539 at 3 μg/ml. Cells were trypsinized, washed once with PBS buffer and then resuspended into 500 μl of PBS prior to analysis using a BD Fortessa flow cytometer as previously described.
Cells were lysed in RIPA buffer (50 mM Tris-HCl, at pH 8.0; 150 mM NaCl; 1% (vol/vol) Nonidet P-40; 0.5% sodium deoxycholate, 0.1% SDS and protease inhibitor cocktail (Roche)) on ice. Primary antibodies were used at the following concentrations: USP30 (Santa Cruz, sc-515235, 1:200); TOM20 (Cell Signaling Technology, 42406S, 1:1000); TOM40 (Proteintech, 18409-1-AP, 1:1000); NDP52 (Cell Signaling Technology, 60732S, 1:1000); TIM23 (Proteintech, 11123-1-AP, 1:500); LC3A/B (Cell Signaling Technology, 4108S, 1:1000); GAPDH (Cell Signaling Technology, 5175S, 1:1000); PINK1 (Cell Signaling Technology, 6946S, 1:1000); ACTIN (Cell Signaling Technology, 3700S, 1:1000). The membranes were incubated with anti-rabbit (LI-COR, 926-32211, 1:15000) or anti-mouse (LI-COR, 926-68072, 1:15000) IgG secondary antibodies for 1 h at room temperature. Images were captured using the Odyssey system (LI-Cor). One representative blot is shown of three independent experiments.
The enzymatic activity of Parkin is to function as an E3 ubiquitin ligase. […] To investigate TOM20 ubiquitination during mitophagy, we treated HeLa cells stably expressing YFP-Parkin (Hela-Parkin) for up to 18 h with both the mitochondrial complex III inhibitor antimycin A and the ATP synthase inhibitor oligomycin (antimycin A/oligomycin/[A/O]; FIG. 1A). […] A/O treatment also results in a decline in the abundance of the OMM protein TOM40 and the inner mitochondrial protein TIM23 (FIG. 1A). […] In this context, increased expression of USP30 blocked the accumulation of ubiquitinated TOM20 and prevented the destruction of this outer mitochondrial protein, as well as TOM40 and TIM23, after A/O treatment (FIG. 1A). We then employed this cellular assay to monitor TOM20 turnover, and analyzed compounds known to be associated with the ubiquitination process for inhibitors of USP30. […] We defined the effects of this chemical using biochemical assays. […] Initially to assess mitophagy in cells, we monitored the degradation of the inner membrane protein, the translocase of the inner membrane 23 (TIM23), by immunoblotting (FIG. 5A). […] USP30's overexpression prevented a reduction in TIM23 and TOM40 levels.
Genetic suppression of USP30 in Parkin-overexpressing cells promotes the clearance of mitochondria in response to mitochondrial depolarizing agents. […]

wild type MEFs = experiment: Mitochondrial morphology, confocal imaging; format: cell-based, mouse; conditions: ST-539 3 or 10 μg/ml, 24 h
Method: as §1

[2] = test system: HeLa-Parkin cells and HeLa-Parkin cells that express USP30; experiment: Mitophagy in cells by mt-Keima fluorescence FACS; format: cell-based
Method: as §1, with “For FACS analysis, cells stably expressing mt-Keima were incubated in medium containing a mixture of 1 AM oligomycin and 1 AM antimycin A for 1.5 h. Prior to A/O treatment, cultures were treated with DMSO or ST-539 at 3 μg/ml. Cells were trypsinized, washed once with PBS buffer and then resuspended into 500 μl of PBS prior to analysis using a BD Fortessa flow cytometer as previously described.” left out
We employed a sensitive fluorescence-activated cell sorting (FACS)-based method for detecting mitophagy using the pH-dependent fluorescent protein Keima. […] We exploited the mt-Keima probe and measured mitophagy in HeLa-Parkin cells and HeLa-Parkin cells that express USP30. […]

[3] = ST-539 10 μg/ml, with A/O, presence of USP30

CC(C)(C)NS(=O)(=O)c1cccc2c(NC(=O)C(Cc3ccccc3)NC(=O)c3ccccc3)cccc12 (centres unmarked) [ST-539]
basal and maximal respiration ([1]; 24 h ST-539, high dose): slight increase | basal respiration and spare respiratory capacity ([1]; ST-539, both cell lines): Slightly increased | TOM20 ubiquitination and decline in TOM20 level on addition of ST-539 (TOM20; A/O plus ST-539 1 or 3 μg/ml, cells expressing both ectopic Parkin and endogenous PINK1): further potentiated | correlation of TOM20 ubiquitination with ST-539 dosage (TOM20; A/O treatment): A close correlation exists | reduction in TOM20 level relative to vehicle treated cells (TOM20; Parkin positive cells, A/O 18 h, ST-539 3 μg/ml, not in WT HeLa or PINK1 KO cells): more significant reduction | TOM20 ubiquitination (TOM20; [3]): caused a ubiquitinated TOM20 | loss of TOM20 protein level (TOM20; [3]): ~ 90% | TOM20 ubiquitination independent of functional PINK1/Parkin pathway (TOM20; long term treatment (18 h), ST-539 3 μg/ml): did not promote TOM20 ubiquitination | mitochondrial morphology (wild type MEFs): failed to change the mitochondrial morphology | A/O induced mitophagy (mt-Keima FACS) ([2]; ST-539 3 μg/ml, HeLa-Parkin cells expressing USP30): restored A/O induced mitophagy | mitophagy in the absence of mitochondrial stress ([2]; cellular studies, ST-539, no stress): minimal change in mitophagy
